According to patent publication US20240124483A1, “Methods for the Treatment of Fibrotic Disease” (SHY Therapeutics, LLC, priority 2021, published 2024):
Where two headings read alike, the source gives them in different places.

Columns and labels:
[1] = tested on: MAPK p38; test: MAPK p38 Activation Assay in Panc-1 (western blot); format: cell-based, Human; set-up: key: Y = yes; N = No; conditions: at 10 μM
Outline: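 Cells serum-starved overnight in 0.5% FBS, then compound 3 h at 37° C (10 μM or serial dilutions for IC50; 0.3% DMSO). TGF-b1 10 ng/ml stimulation followed: 1 h for Panc-1, 20 min for C2C12. Phospho-p38 (Thr180/Tyr182) measured by western blot of lysates.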

[2] = tested on: Smad2/3 phosphorylation; test: Phospho-Smad2/3 Inhibition Assay in Panc-1 (western blot); format: cell-based; conditions: Homo sapiens; 10 μM, 3 hours; PANC-1 stimulated with 10 ng/ml TGF-b1 for 1 hour; read-out: % inh of Smad2/3 phosphorylation in PANC-1
Outline: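 Serum-starved cells (0.5% FBS overnight) pretreated 3 h at 37 °C with compound at 10 μM or serial dilutions for IC50, in 0.3% DMSO. TGF-b1 10 ng/ml stimulation: 1 h for Panc-1 (human), 20 min for C2C12 (mouse). Phospho-Smad2 (Ser465/467) and phospho-Smad3 (Ser423/425) measured by western blot of lysates.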

[3] = target: KRas Q61H mutant (Homo sapiens (Human), UniProt P01116, Q61H); test: Ras GTP Binding Domain Inhibition Assay, KRas Q61H mutant; conditions: 20 μM
Outline: (§1)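 His-tagged GTPase immobilized on nickel-coated plates (10-30 μg/mL, overnight, 4° C), then exposed to compound (20 μM or serial dilution for IC50, 1% DMSO) for 3 h at room temperature, with or without His-tagged Sos (residues 556-1049) in the final hour. Bound Cy3-GTP or Cy5-GTP (100 nM, 45 min) was read by fluorescence after washing.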

[4] = tested on: MiaPaca2; test: MiaPaca2 proliferation; format: cell-based; conditions: Homo sapiens, MIA PaCa-2; for inhibition at 10 µM: read-out: % inh of proliferation in MiaPaca2
[5] = target: Rac-1 (Homo sapiens (Human), UniProt P63000); test: Ras GTP Binding Domain Inhibition Assay, Rac-1; conditions: without SOS, read-out: Rac-1: % inh.
Outline: as §1

[6] = + SOS, read-out: KRas Q61H mutant + SOS: % inh.
[7] = without SOS, read-out: KRas Q61H mutant: % inh.

Chain of KRas Q61H mutant (P01116 other isoform, or with tags, fused parts or gaps Q61H): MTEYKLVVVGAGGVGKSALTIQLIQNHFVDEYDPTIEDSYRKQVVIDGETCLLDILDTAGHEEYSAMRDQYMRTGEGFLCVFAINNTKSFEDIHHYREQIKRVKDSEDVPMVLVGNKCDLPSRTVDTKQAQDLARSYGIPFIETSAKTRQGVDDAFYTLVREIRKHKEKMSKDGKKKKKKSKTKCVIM

Compound	inhibition at 20 µM [3, 6] [%]	inhibition at 20 µM [3, 7] [%]	IC50 [4] [µM]	inhibition at 20 µM [5] [%]	Activation of MAPK p38 in PANC-1 [1]	inhibition at 10 µM [2] [%]	inhibition at 10 µM [4] [%]
Cc1c(-c2ccn(C(C)C)n2)sc2nc(-c3nccn3C)nc(NCCN3CCOCC3)c12 [Compound 22, 6-(1-Isopropyl-1H-pyrazol-3-yl)-5-methyl-2-(1-methyl-1H-imidazol-2-yl)-N-(2-morpholinoethyl)thieno[2,3-d]pyrimidin-4-amine]	76 to 100	76 to 100	5 to 10	76 to 100	Y	0	76 to 100
Cc1c(-c2ccn(C(C)C)n2)sc2nc(-c3nccn3C)nc(NCCN3CCS(=O)(=O)CC3)c12 [Compound 23, 4-(2-((6-(1-Isopropyl-1H-pyrazol-3-yl)-5-methyl-2-(1-methyl-1H-imidazol-2-yl)thieno[2,3-d]pyrimidin-4-yl)amino)ethyl)thiomorpholine 1,1-dioxide]	76 to 100	76 to 100	> 10	46 to 75	Y	0	0
COCCn1c(-c2nccn2C)nc2sc(-c3ccn(C(C)C)n3)c(C)c2c1=O [Compound 29, 6-(1-Isopropyl-1H-pyrazol-3-yl)-3-(2-methoxyethyl)-5-methyl-2-(1-methyl-1H-imidazol-2-yl)thieno[2,3-d]pyrimidin-4(3H)-one]	76 to 100	46 to 75	5 to 10	0	Y	0	46 to 75
COCCOc1nc(-c2nccn2C)nc2sc(-c3ccn(C(C)C)n3)c(C)c12 [Compound 30, 6-(1-Isopropyl-1H-pyrazol-3-yl)-4-(2-methoxyethoxy)-5-methyl-2-(1-methyl-1H-imidazol-2-yl)thieno[2,3-d]pyrimidine]	1 to 25	0	> 10	0	N	0	1 to 25
COCCCn1c(-c2nccn2C)nc2sc(-c3ccn(C(C)C)n3)c(C)c2c1=O [Compound 31, 6-(1-Isopropyl-1H-pyrazol-3-yl)-3-(3-methoxypropyl)-5-methyl-2-(1-methyl-1H-imidazol-2-yl)thieno[2,3-d]pyrimidin-4(3H)-one]	0	0	> 10	0	N	0	0
COCCCOc1nc(-c2nccn2C)nc2sc(-c3ccn(C(C)C)n3)c(C)c12 [Compound 32, 6-(1-Isopropyl-1H-pyrazol-3-yl)-4-(3-methoxypropoxy)-5-methyl-2-(1-methyl-1H-imidazol-2-yl)thieno[2,3-d]pyrimidine]	46 to 75	46 to 75	5 to 10	0	N	0	76 to 100
COCCCCn1c(-c2nccn2C)nc2sc(-c3ccn(C(C)C)n3)c(C)c2c1=O [Compound 33, 6-(1-Isopropyl-1H-pyrazol-3-yl)-3-(4-methoxybutyl)-5-methyl-2-(1-methyl-1H-imidazol-2-yl)thieno[2,3-d]pyrimidin-4(3H)-one]	1 to 25	0	> 10	0	N	0	0
COCCCCOc1nc(-c2nccn2C)nc2sc(-c3ccn(C(C)C)n3)c(C)c12 [Compound 34, 6-(1-Isopropyl-1H-pyrazol-3-yl)-4-(4-methoxybutoxy)-5-methyl-2-(1-methyl-1H-imidazol-2-yl)thieno[2,3-d]pyrimidine]	1 to 25	0	> 10	0	N	0	26 to 45
COc1cc(Cn2c(-c3nccn3C)nc3sc(-c4ccn(C(C)C)n4)c(C)c3c2=O)ncn1 [Compound 35, 6-(1-Isopropyl-1H-pyrazol-3-yl)-3-((6-methoxypyrimidin-4-yl)methyl)-5-methyl-2-(1-methyl-1H-imidazol-2-yl)thieno[2,3-d]pyrimidin-4(3H)-one]	1 to 25	1 to 25	> 10	0	N	0	0

Continued, in another order:

inhibition at 20 µM [3, 6] [%]	inhibition at 20 µM [3, 7] [%]	IC50 [4] [µM]	inhibition at 20 µM [5] [%]	Compound	Activation of MAPK p38 in PANC-1 [1]	inhibition at 10 µM [2] [%]	inhibition at 10 µM [4] [%]
76 to 100	76 to 100	1 to 4.99	46 to 75	COc1cc(Nc2nc(-c3nccn3C)nc3sc(-c4ccn(C(C)C)n4)c(C)c23)ncn1 [Compound 19, 6-(1-Isopropyl-1H-pyrazol-3-yl)-N-(6-methoxypyrimidin-4-yl)-5-methyl-2-(1-methyl-1H-imidazol-2-yl)thieno[2,3-d]pyrimidin-4-amine]	Y	76 to 100	76 to 100
76 to 100	76 to 100	5 to 10	76 to 100	COCCOCCNc1nc(-c2nccn2C)nc2sc(-c3ccn(C(C)C)n3)c(C)c12 [Compound 21, 6-(1-Isopropyl-1H-pyrazol-3-yl)-N-(2-(2-methoxyethoxy)ethyl)-5-methyl-2-(1-methyl-1H-imidazol-2-yl)thieno[2,3-d]pyrimidin-4-amine]	Y	0	76 to 100
76 to 100	46 to 75	5 to 10	46 to 75	CO[C@H]1CNC[C@@H](Nc2nc(-c3nccn3C)nc3sc(-c4ccn(C(C)C)n4)cc23)C1 [Compound 28, 6-(1-Isopropyl-1H-pyrazol-3-yl)-N-((3S,5R)-5-methoxypiperidin-3-yl)-2-(1-methyl-1H-imidazol-2-yl)thieno[2,3-d]pyrimidin-4-amine]	Y	0	76 to 100
0	0	5 to 10	0	COCCCn1c(-c2nccn2C)nc2sc(-c3ccn(C(C)C)n3)c(-c3ccccc3)c2c1=O [Compound 36, 6-(1-Isopropyl-1H-pyrazol-3-yl)-3-(3-methoxypropyl)-2-(1-methyl-1H-imidazol-2-yl)-5-phenylthieno[2,3-d]pyrimidin-4(3H)-one]	Y	0	76 to 100
0	0	> 10	0	COCCCOc1nc(-c2nccn2C)nc2sc(-c3ccn(C(C)C)n3)c(-c3ccccc3)c12 [Compound 37, 6-(1-Isopropyl-1H-pyrazol-3-yl)-4-(3-methoxypropoxy)-2-(1-methyl-1H-imidazol-2-yl)-5-phenylthieno[2,3-d]pyrimidine]	Y	0	1 to 25
76 to 100	76 to 100	1 to 4.99	26 to 45	COc1cccc(-c2sc3nc(-c4nccn4C)nc(N[C@H]4C[C@H](OC)C4)c3c2-c2ccccc2)c1F [Compound 40, 6-(2-Fluoro-3-methoxyphenyl)-N-((1r,3r)-3-methoxycyclobutyl)-2-(1-methyl-1H-imidazol-2-yl)-5-phenylthieno[2,3-d]pyrimidin-4-amine]	Y	76 to 100	76 to 100
76 to 100	46 to 75	5 to 10	0	COc1cccc(-c2sc3nc(-c4nccn4C)nc(N[C@H]4C[C@H](OC)C4)c3c2C)c1F [Compound 42, 6-(2-Fluoro-3-methoxyphenyl)-N-((1r,3r)-3-methoxycyclobutyl)-5-methyl-2-(1-methyl-1H-imidazol-2-yl)thieno[2,3-d]pyrimidin-4-amine]	Y	1 to 25	76 to 100
